Measured values from patent publication US10647669B2, “Composition containing lutein/lutein ester and applications thereof” (priority 2016, dated 2020).

Test: Effect of pH on the stability of lutein/lutein ester (absorbance of acetone aqueous solutions)
Type: physicochemical
Conditions: for Absorbance value: acetone aqueous solution; for Retention: after placing for 96 h at pH 1.5; for Change of absorbance values: under strong acid conditions
Protocol: Effect of pH on the Stability of Lutein/Lutein Ester The acetone aqueous solutions of lutein and lutein ester with pH 1.5 and pH 3 were prepared respectively, and the absorbance values at different time period are shown as follows: […]

## CC1=C[C@H](O)CC(C)(C)[C@H]1/C=C/C(C)=C/C=C/C(C)=C/C=C/C=C(C)/C=C/C=C(C)/C=C/C1=C(C)C[C@@H](O)CC1(C)C [Lutein, lutein]
pH 1.5, 0 h
  Absorbance value: 0.843
pH 1.5, 12 h
  Absorbance value: 0.559
pH 1.5, 24 h
  Absorbance value: 0.452
pH 1.5, 36 h
  Absorbance value: 0.368
pH 1.5, 48 h
  Absorbance value: 0.267
pH 1.5, 96 h
  Absorbance value: 0.151
pH 3.0, 0 h
  Absorbance value: 0.845
pH 3.0, 12 h
  Absorbance value: 0.566
pH 3.0, 24 h
  Absorbance value: 0.495
pH 3.0, 36 h
  Absorbance value: 0.428
pH 3.0, 48 h
  Absorbance value: 0.341
pH 3.0, 96 h
  Absorbance value: 0.268
  Retention: 17.80%
  Change of absorbance values: decrease significantly

## lutein ester
pH 1.5, 0 h
  Absorbance value: 0.844
pH 1.5, 12 h
  Absorbance value: 0.588
pH 1.5, 24 h
  Absorbance value: 0.466
pH 1.5, 36 h
  Absorbance value: 0.377
pH 1.5, 48 h
  Absorbance value: 0.259
pH 1.5, 96 h
  Absorbance value: 0.155
pH 3.0, 0 h
  Absorbance value: 0.837
pH 3.0, 12 h
  Absorbance value: 0.597
pH 3.0, 24 h
  Absorbance value: 0.502
pH 3.0, 36 h
  Absorbance value: 0.439
pH 3.0, 48 h
  Absorbance value: 0.356
pH 3.0, 96 h
  Absorbance value: 0.274
  Retention: 18.36%
  Change of absorbance values: decrease significantly
